Source: publication PMC4893628, “Chalcone-based Selective Inhibitors of a C4 Plant Key Enzyme as Novel Potential Herbicides” (Scientific Reports, 2016)
Values joined by “and” are separate entries in the source; they are usually repeats but may differ in a detail not shown here. Equal entries are not always repeated. Where two headings read alike, the source gives them in different places.

How the values were obtained:
F. trinervia PEPC = target: T1, F. trinervia PEPC (Flaveria trinervia, UniProt P30694); test: biochemical; type: biochemical
T1 construct: the full-length ppcA gene of PEPC from F. trinervia (EMBL-Bank X61304); made in house; host or cells: Escherichia coli BL21(DE3)
T1 sequence (P30694 1-966): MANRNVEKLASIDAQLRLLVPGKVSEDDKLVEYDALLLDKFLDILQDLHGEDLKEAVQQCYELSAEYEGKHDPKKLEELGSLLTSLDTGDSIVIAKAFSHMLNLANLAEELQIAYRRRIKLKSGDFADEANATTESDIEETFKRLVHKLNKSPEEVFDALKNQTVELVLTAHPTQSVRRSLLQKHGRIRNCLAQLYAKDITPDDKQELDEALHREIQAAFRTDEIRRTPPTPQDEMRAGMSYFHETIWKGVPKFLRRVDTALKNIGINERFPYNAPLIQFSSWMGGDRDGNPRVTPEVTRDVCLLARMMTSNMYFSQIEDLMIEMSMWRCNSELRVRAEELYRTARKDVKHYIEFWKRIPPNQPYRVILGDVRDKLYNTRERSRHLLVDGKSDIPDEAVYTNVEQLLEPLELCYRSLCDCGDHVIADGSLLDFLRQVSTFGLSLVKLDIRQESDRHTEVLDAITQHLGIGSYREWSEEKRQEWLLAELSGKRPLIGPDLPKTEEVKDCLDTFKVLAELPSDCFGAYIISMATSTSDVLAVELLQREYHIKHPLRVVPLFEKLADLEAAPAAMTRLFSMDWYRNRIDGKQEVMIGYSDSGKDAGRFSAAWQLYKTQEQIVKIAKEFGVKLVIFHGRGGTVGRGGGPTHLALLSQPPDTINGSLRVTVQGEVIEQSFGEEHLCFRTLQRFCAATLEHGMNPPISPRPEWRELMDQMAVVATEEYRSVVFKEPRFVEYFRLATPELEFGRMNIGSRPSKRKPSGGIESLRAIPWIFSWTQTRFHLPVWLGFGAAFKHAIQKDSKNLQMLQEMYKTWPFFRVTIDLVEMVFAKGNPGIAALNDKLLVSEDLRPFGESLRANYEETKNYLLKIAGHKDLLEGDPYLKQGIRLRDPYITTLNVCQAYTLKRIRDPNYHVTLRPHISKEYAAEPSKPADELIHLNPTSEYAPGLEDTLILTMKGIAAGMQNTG

Bacillus subtilis 168 = test: Bacterial growth in microscale cultivation, B. subtilis; type: cell-based; settings: relative to control
Method in brief: (§1)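 Inhibitors in DMSO were added to the medium, at a maximum of 400 μM for trans-chalcone and 100 μM for 2'-hydroxychalcone. Cultures were seeded at OD600 0.5, or 0.25 for B. subtilis, and growth was followed as 620 nm backscatter in a BioLector at 1200 rpm. Final backscatter, growth rate and lag phase were compared with DMSO controls.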

[1] = test system: Pseudomonas putida KT2440; test: Bacterial growth in microscale cultivation, P. putida; type: cell-based; settings: relative to control; for activity at 0.3 µM / activity at 3 µM / activity at 30 µM: Pseudomonas putida
Method in brief: as §1

[2] = test system: Escherichia coli K-12 MG1655; test: Bacterial growth in microscale cultivation, E. coli; type: cell-based; settings: relative to control; for activity at 0.3 µM / activity at 3 µM / activity at 30 µM: Escherichia coli
Method in brief: as §1

For `O=C(/C=C/c1ccc(O)c(O)c1)c1c(O)cc(O)cc1O` [Compound 11, 2′,4′,6′,3,4-Pentahydroxy-chalcone], the “lower inhibitory effect / weaker inhibitory potency compared to okanin (12)” value (F. trinervia PEPC; C4 PEPC) was “~ four”, the “Selectivity C4/C3” value (F. trinervia PEPC; C4 PEPC over C3 isoform) was 3.3 fold and the IC50 (F. trinervia PEPC; C4 PEPC, read-out: IC50 F. trinervia PEPC) was 2500 ± 100 nM. For the same molecule, the “decreased / lower selectivity compared to okanin (12)” value (F. trinervia PEPC; C4 vs. C3 PEPC) was ~ 14 fold and ~ 13 fold, the activity at 0.3 µM (Bacillus subtilis 168; Bacillus subtilis, 168, complex medium, 0.3 µM, read-out: Final Backscatter) was 97.4% and the activity at 0.3 µM (Bacillus subtilis 168; Bacillus subtilis, 168, complex medium, 0.3 µM, read-out: Growth rate) was 106%. The activity at 3 µM (Bacillus subtilis 168; Bacillus subtilis, 168, complex medium, 3 µM, read-out: Final Backscatter) was 96.5%, the activity at 3 µM (Bacillus subtilis 168; Bacillus subtilis, 168, complex medium, 3 µM, read-out: Growth rate) was 106% and the activity at 30 µM (Bacillus subtilis 168; Bacillus subtilis, 168, complex medium, 30 µM, read-out: Final Backscatter) was 97.1%. For the same molecule, the activity at 30 µM (Bacillus subtilis 168; Bacillus subtilis, 168, complex medium, 30 µM, read-out: Growth rate) was 97.8%, the activity at 0.3 µM (Bacillus subtilis 168; Bacillus subtilis, 168, minimal medium, 0.3 µM, read-out: Final Backscatter) was 97.2% and the activity at 0.3 µM (Bacillus subtilis 168; Bacillus subtilis, 168, minimal medium, 0.3 µM, read-out: Growth rate) was 114%. For the same molecule, the activity at 3 µM (Bacillus subtilis 168; Bacillus subtilis, 168, minimal medium, 3 µM, read-out: Final Backscatter) was 98.7%, the activity at 3 µM (Bacillus subtilis 168; Bacillus subtilis, 168, minimal medium, 3 µM, read-out: Growth rate) was 107% and the activity at 30 µM (Bacillus subtilis 168; Bacillus subtilis, 168, minimal medium, 30 µM, read-out: Final Backscatter) was 103%. For the same molecule, the activity at 30 µM (Bacillus subtilis 168; Bacillus subtilis, 168, minimal medium, 30 µM, read-out: Growth rate) was 103%, the “Lag Phase” value (Bacillus subtilis 168; complex medium, 0.3 µM) was 100,0% and the “Lag Phase” value (Bacillus subtilis 168; complex medium, 3 µM) was 100,0%. The “Lag Phase” value (Bacillus subtilis 168; complex medium, 30 µM) was 100,0%, the “Lag Phase” value (Bacillus subtilis 168; minimal medium, 0.3 µM) was 100,0% and the “Lag Phase” value (Bacillus subtilis 168; minimal medium, 3 µM) was 101,1%. The “Lag Phase” value (Bacillus subtilis 168; minimal medium, 30 µM) was 100,0%, the activity at 0.3 µM ([1]; KT2440, complex medium, 0.3 µM, read-out: Final Backscatter) was 92.6% and the activity at 0.3 µM ([1]; KT2440, complex medium, 0.3 µM, read-out: Growth rate) was 108%. For the same molecule, the activity at 3 µM ([1]; KT2440, complex medium, 3 µM, read-out: Final Backscatter) was 96.8%, the activity at 3 µM ([1]; KT2440, complex medium, 3 µM, read-out: Growth rate) was 106% and the activity at 30 µM ([1]; KT2440, complex medium, 30 µM, read-out: Final Backscatter) was 92.5%. For the same molecule, the activity at 30 µM ([1]; KT2440, complex medium, 30 µM, read-out: Growth rate) was 105%, the activity at 0.3 µM ([1]; KT2440, minimal medium, 0.3 µM, read-out: Final Backscatter) was 93.9% and the activity at 0.3 µM ([1]; KT2440, minimal medium, 0.3 µM, read-out: Growth rate) was 96.8%. The activity at 3 µM ([1]; KT2440, minimal medium, 3 µM, read-out: Final Backscatter) was 94.9%, the activity at 3 µM ([1]; KT2440, minimal medium, 3 µM, read-out: Growth rate) was 98.7% and the activity at 30 µM ([1]; KT2440, minimal medium, 30 µM, read-out: Final Backscatter) was 99%. For the same molecule, the activity at 30 µM ([1]; KT2440, minimal medium, 30 µM, read-out: Growth rate) was 95.2%, the “Lag Phase” value ([1]; complex medium, 0.3 µM) was 95,5% and the “Lag Phase” value ([1]; complex medium, 3 µM) was 97,5%. For the same molecule, the “Lag Phase” value ([1]; complex medium, 30 µM) was 97,0%, the “Lag Phase” value ([1]; minimal medium, 0.3 µM) was 99,3% and the “Lag Phase” value ([1]; minimal medium, 3 µM) was 98,9%. For the same molecule, the “Lag Phase” value ([1]; minimal medium, 30 µM) was 98,9%, the activity at 0.3 µM ([2]; MG1655, complex medium, 0.3 µM, read-out: Final Backscatter) was 98% and the activity at 0.3 µM ([2]; MG1655, complex medium, 0.3 µM, read-out: Growth rate) was 104%. For the same molecule, the activity at 3 µM ([2]; MG1655, complex medium, 3 µM, read-out: Final Backscatter) was 98.1%, the activity at 3 µM ([2]; MG1655, complex medium, 3 µM, read-out: Growth rate) was 106% and the activity at 30 µM ([2]; MG1655, complex medium, 30 µM, read-out: Final Backscatter) was 96.9%. The activity at 30 µM ([2]; MG1655, complex medium, 30 µM, read-out: Growth rate) was 104%, the activity at 0.3 µM ([2]; MG1655, minimal medium, 0.3 µM, read-out: Final Backscatter) was 98% and the activity at 0.3 µM ([2]; MG1655, minimal medium, 0.3 µM, read-out: Growth rate) was 107%. It also gave an activity at 3 µM ([2]; MG1655, minimal medium, 3 µM, read-out: Final Backscatter) of 98.7%, an activity at 3 µM ([2]; MG1655, minimal medium, 3 µM, read-out: Growth rate) of 109% and an activity at 30 µM ([2]; MG1655, minimal medium, 30 µM, read-out: Final Backscatter) of 97.9%. For the same molecule, the activity at 30 µM ([2]; MG1655, minimal medium, 30 µM, read-out: Growth rate) was 107%, the “Lag Phase” value ([2]; complex medium, 0.3 µM) was 107,1% and the “Lag Phase” value ([2]; complex medium, 3 µM) was 107,1%. For the same molecule, the “Lag Phase” value ([2]; complex medium, 30 µM) was 107,1%, the “Lag Phase” value ([2]; minimal medium, 0.3 µM) was 103,4% and the “Lag Phase” value ([2]; minimal medium, 3 µM) was 101,7%. For the same molecule, the “Lag Phase” value ([2]; minimal medium, 30 µM) was 103,4%.
